Measured values: patent publication US20250101023A1, “HETEROARYL DERIVATIVE AND USES THEREOF” (IUCF-HYU (INDUSTRY-UNIVERSITY COOPERATION FOUNDATION …, priority 2022, published 2025)

Legend:
Type in all cases: biochemical
[1] = system: 371 human wild-type kinases; assay: Kinome-wide inhibitory activity profiling (panel summary); details: 10 μM; CDK1, 2, 3, 5, 7, 9, 17, 18 complexes, LKB1, EPHA3/4/5/6, EPHB2, DYRK1A/B, MAK, MYLK4, GSK3b, FES, CHK2, PAK5, ERK1
CDK9/cyclin T1 = CDK9/cyclin T1 (Homo sapiens (Human), UniProt P50750); assay: Kinome-wide profiling; details: read-out: % Residual Activity (mean)
CK1d = CK1d (Homo sapiens (Human), UniProt P48730); assay: Kinome-wide profiling; details: read-out: % Residual Activity (mean)
PAK4 = PAK4 (Homo sapiens (Human), UniProt O96013); assay: Kinome-wide profiling; details: read-out: % Residual Activity (mean)
CK1g3 = CK1g3 (Homo sapiens (Human), UniProt Q9Y6M4); assay: Kinome-wide profiling; details: read-out: % Residual Activity (mean)
CLK4 = CLK4 (Homo sapiens (Human), UniProt Q9HAZ1); assay: Kinome-wide profiling; details: read-out: % Residual Activity (mean)
TXK = TXK (Homo sapiens (Human), UniProt P42681); assay: Kinome-wide profiling; details: read-out: % Residual Activity (mean)
FMS = FMS (Homo sapiens (Human), UniProt P07333); assay: Kinome-wide profiling; details: read-out: % Residual Activity (mean)
STK38L/NDR2 = STK38L/NDR2 (Homo sapiens (Human), UniProt Q9Y2H1); assay: Kinome-wide profiling; details: read-out: % Residual Activity (mean)
MST4 = MST4 (Homo sapiens (Human), UniProt Q9P289); assay: Kinome-wide profiling; details: read-out: % Residual Activity (mean)
ERN1/IRE1 = ERN1/IRE1 (Homo sapiens (Human), UniProt O75460); assay: Kinome-wide profiling; details: read-out: % Residual Activity (mean)
LYN B = LYN B (Homo sapiens (Human), UniProt P07948); assay: Kinome-wide profiling; details: read-out: % Residual Activity (mean)
GCK/MAP4K2 = GCK/MAP4K2 (Homo sapiens (Human), UniProt Q12851); assay: Kinome-wide profiling; details: read-out: % Residual Activity (mean)
DYRK3 = DYRK3 (Homo sapiens (Human), UniProt O43781); assay: Kinome-wide profiling; details: read-out: % Residual Activity (mean)
MLCK2/MYLK2 = MLCK2/MYLK2 (Homo sapiens (Human), UniProt Q9H1R3); assay: Kinome-wide profiling; details: read-out: % Residual Activity (mean)
CAMK2d = CAMK2d (Homo sapiens (Human), UniProt Q13557); assay: Kinome-wide profiling; details: read-out: % Residual Activity (mean)
IKKa/CHUK = IKKa/CHUK (Homo sapiens (Human), UniProt O15111); assay: Kinome-wide profiling; details: read-out: % Residual Activity (mean)
Aurora B = Aurora B (Homo sapiens (Human), UniProt Q96GD4); assay: Kinome-wide profiling; details: read-out: % Residual Activity (mean)
MARK2/PAR-1Ba = MARK2/PAR-1Ba (Homo sapiens, UniProt Q7KZI7); assay: Kinome-wide profiling; details: read-out: % Residual Activity (mean)
Haspin = Haspin (Homo sapiens (Human), UniProt Q8TF76); assay: Kinome-wide profiling; details: read-out: % Residual Activity (mean)
CHK1 = CHK1 (Homo sapiens (Human), UniProt O14757); assay: Kinome-wide profiling; details: read-out: % Residual Activity (mean)
PKCtheta = PKCtheta (Homo sapiens (Human), UniProt Q04759); assay: Kinome-wide profiling; details: read-out: % Residual Activity (mean)
IKKe/IKBKE = IKKe/IKBKE (Homo sapiens (Human), UniProt Q14164); assay: Kinome-wide profiling; details: read-out: % Residual Activity (mean)
LATS1 = LATS1 (Homo sapiens (Human), UniProt O95835); assay: Kinome-wide profiling; details: read-out: % Residual Activity (mean)
PKCIOTA = PKCIOTA (Homo sapiens (Human), UniProt P41743); assay: Kinome-wide profiling; details: read-out: % Residual Activity (mean)
PKCzeta = PKCzeta (Homo sapiens (Human), UniProt Q05513); assay: Kinome-wide profiling; details: read-out: % Residual Activity (mean)
TYK2 = TYK2 (Homo sapiens (Human), UniProt P29597); assay: Kinome-wide profiling; details: read-out: % Residual Activity (mean)
JAK1 = JAK1 (Homo sapiens (Human), UniProt P23458); assay: Kinome-wide profiling; details: read-out: % Residual Activity (mean)
CLK3 = CLK3 (Homo sapiens (Human), UniProt P49761); assay: Kinome-wide profiling; details: read-out: % Residual Activity (mean)
AKT1 = AKT1 (Homo sapiens (Human), UniProt P31749); assay: Kinome-wide profiling; details: read-out: % Residual Activity (mean)
NEK4 = NEK4 (Homo sapiens (Human), UniProt P51957); assay: Kinome-wide profiling; details: read-out: % Residual Activity (mean)
SRMS = SRMS (Homo sapiens (Human), UniProt Q9H3Y6); assay: Kinome-wide profiling; details: read-out: % Residual Activity (mean)
CDC7/DBF4 = CDC7/DBF4 (Homo sapiens (Human), UniProt O00311); assay: Kinome-wide profiling; details: read-out: % Residual Activity (mean)

Chain of CK1d (P48730 whole entry): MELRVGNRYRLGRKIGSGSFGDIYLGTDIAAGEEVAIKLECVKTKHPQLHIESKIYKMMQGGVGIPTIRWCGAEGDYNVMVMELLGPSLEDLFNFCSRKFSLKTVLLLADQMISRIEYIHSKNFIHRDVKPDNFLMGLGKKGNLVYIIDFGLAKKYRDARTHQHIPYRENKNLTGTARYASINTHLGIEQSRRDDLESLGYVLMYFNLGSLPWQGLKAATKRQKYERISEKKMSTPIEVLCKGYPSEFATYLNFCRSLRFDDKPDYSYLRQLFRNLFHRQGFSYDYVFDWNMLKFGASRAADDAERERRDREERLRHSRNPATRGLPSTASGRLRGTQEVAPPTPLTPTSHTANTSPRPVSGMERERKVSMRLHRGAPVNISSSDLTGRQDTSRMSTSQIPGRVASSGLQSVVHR
Chain of SRMS (Q9H3Y6 whole entry): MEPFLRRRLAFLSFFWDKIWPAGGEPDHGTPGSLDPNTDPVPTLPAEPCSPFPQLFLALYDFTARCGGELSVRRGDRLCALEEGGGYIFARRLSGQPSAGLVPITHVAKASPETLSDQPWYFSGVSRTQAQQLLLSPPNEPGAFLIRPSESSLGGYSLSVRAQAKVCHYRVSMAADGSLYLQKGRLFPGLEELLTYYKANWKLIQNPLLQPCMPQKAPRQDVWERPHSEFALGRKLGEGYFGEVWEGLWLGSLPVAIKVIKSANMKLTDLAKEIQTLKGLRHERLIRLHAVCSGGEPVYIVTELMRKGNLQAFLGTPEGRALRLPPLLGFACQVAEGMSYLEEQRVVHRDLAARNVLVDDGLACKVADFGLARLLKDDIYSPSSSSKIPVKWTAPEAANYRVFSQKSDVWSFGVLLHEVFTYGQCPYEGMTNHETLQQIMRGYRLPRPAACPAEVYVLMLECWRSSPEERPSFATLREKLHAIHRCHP
Chain of STK38L/NDR2 (Q9Y2H1 whole entry): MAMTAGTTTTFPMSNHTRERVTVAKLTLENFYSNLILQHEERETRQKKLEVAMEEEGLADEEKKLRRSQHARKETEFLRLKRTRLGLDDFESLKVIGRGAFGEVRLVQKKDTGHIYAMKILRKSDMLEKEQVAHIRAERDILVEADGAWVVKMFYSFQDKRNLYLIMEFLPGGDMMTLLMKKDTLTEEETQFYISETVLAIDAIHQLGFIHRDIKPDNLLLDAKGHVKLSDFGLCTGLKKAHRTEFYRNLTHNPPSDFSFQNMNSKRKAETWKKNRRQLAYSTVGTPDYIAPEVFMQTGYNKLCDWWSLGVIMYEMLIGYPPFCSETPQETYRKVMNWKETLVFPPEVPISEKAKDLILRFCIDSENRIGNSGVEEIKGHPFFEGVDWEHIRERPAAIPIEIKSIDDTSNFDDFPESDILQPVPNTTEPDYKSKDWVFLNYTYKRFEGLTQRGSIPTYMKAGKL
Chain of CLK4 (Q9HAZ1 whole entry): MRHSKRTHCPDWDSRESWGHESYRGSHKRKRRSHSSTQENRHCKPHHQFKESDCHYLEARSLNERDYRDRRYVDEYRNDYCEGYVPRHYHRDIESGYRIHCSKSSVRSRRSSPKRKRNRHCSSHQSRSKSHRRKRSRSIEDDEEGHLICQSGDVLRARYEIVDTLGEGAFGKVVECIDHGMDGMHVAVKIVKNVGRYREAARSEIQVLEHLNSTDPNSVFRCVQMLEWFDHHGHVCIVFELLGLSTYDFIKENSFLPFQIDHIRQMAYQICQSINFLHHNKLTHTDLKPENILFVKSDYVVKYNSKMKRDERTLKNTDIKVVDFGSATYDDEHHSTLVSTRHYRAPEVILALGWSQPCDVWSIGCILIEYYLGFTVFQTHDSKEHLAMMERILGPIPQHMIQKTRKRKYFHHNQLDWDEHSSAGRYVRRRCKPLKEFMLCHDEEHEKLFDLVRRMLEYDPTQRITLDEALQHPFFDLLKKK
Chain of CK1g3 (Q9Y6M4 whole entry): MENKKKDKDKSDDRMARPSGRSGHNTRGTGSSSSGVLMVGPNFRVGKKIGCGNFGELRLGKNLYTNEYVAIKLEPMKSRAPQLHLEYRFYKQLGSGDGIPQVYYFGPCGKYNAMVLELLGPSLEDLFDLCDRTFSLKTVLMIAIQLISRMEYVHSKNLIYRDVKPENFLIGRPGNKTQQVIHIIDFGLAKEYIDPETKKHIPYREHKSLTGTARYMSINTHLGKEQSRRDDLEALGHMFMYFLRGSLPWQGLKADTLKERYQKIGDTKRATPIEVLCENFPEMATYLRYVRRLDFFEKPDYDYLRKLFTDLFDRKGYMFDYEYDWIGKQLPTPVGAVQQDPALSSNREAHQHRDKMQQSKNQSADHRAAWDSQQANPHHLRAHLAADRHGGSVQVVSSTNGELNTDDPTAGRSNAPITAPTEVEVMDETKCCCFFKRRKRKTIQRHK
Chain of CLK3 (P49761 whole entry): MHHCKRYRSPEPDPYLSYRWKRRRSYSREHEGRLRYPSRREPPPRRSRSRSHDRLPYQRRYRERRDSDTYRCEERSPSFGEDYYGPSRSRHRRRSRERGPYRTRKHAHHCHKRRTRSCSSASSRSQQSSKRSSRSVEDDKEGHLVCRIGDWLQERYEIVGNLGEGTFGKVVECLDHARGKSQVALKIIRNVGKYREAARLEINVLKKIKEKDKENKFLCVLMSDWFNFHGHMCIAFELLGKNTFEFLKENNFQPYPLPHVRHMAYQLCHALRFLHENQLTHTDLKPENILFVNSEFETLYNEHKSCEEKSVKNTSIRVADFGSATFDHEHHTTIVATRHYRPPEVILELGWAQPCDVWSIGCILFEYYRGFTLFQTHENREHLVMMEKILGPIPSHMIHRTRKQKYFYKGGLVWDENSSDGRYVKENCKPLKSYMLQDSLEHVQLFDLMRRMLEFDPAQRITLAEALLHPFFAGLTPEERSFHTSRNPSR
Chain of TXK (P42681 whole entry): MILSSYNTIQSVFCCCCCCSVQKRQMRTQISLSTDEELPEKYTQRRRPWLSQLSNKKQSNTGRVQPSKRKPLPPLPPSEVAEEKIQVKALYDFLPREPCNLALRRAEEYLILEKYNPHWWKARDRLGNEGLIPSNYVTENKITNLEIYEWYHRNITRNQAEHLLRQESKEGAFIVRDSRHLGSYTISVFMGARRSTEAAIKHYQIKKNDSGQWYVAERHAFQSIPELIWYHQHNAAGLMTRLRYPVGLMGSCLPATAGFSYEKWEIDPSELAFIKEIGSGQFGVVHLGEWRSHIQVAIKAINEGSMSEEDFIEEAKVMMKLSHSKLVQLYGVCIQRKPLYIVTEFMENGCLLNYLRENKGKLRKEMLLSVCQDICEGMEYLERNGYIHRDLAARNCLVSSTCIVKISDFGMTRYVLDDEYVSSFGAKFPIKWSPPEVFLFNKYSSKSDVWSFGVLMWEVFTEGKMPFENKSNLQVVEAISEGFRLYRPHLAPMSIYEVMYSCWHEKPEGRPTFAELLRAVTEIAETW
Chain of NEK4 (P51957 whole entry): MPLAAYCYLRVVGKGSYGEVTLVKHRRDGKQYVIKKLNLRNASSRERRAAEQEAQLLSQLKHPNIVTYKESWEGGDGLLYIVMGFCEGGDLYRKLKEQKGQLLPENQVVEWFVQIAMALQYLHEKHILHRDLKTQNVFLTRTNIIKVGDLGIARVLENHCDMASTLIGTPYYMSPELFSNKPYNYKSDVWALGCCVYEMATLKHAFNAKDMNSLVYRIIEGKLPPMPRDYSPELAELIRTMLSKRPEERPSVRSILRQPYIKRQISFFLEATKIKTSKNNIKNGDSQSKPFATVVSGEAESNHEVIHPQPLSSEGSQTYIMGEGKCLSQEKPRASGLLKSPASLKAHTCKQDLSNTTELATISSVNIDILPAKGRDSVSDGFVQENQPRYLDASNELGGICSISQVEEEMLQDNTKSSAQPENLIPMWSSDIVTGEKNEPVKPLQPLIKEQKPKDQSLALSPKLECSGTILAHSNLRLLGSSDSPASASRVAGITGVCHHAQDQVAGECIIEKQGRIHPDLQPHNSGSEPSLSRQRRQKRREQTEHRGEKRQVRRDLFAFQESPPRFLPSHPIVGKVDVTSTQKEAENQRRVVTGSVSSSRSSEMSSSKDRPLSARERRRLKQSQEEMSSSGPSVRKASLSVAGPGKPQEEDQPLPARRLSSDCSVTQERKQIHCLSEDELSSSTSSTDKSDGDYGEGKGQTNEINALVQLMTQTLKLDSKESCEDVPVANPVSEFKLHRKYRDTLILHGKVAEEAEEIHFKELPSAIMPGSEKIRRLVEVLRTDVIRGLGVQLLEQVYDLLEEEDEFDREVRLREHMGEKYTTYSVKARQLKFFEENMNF
Chain of AKT1 (P31749 whole entry): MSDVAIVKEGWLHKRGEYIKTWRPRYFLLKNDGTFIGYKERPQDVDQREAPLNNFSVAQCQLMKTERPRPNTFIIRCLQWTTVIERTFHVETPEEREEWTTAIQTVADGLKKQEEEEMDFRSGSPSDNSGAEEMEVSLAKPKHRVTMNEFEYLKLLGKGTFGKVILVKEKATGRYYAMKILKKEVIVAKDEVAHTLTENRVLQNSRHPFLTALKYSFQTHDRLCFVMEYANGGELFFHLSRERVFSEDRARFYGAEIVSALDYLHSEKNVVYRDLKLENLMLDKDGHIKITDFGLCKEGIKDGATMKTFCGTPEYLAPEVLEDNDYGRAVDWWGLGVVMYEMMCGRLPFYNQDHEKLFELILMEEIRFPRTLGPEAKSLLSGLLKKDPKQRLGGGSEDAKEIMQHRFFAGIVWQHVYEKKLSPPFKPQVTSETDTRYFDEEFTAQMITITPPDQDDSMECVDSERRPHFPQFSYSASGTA
Chain of Aurora B (Q96GD4 whole entry): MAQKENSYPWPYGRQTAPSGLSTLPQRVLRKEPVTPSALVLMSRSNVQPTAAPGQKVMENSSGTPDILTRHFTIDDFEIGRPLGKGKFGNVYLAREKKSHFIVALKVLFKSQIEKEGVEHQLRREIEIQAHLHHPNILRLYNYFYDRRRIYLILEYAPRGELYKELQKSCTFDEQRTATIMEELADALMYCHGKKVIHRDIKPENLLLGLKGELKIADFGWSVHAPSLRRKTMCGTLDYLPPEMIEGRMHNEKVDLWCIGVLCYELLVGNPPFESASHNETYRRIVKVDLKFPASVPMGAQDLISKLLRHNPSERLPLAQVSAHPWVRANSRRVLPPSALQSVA

SMILES: CCn1cnc2c(NCc3ccc(-c4ccccn4)nc3)nc(-c3ccc(N)nc3)nc21 [Example 53, N-([2,2′-bipyridin]-5-ylmethyl)-2-(6-aminopyridin-3-yl)-9-ethyl-9H-purin-6-amine]
- kinase inhibition [1]: ≥ 90%
- remaining activity at 10 µM (CDK9/cyclin T1): 0.78%
- remaining activity at 10 µM (CK1d): 10.2%
- remaining activity at 10 µM (PAK4): 12.9%
- remaining activity at 10 µM (CK1g3): 24.4%
- remaining activity at 10 µM (CLK4): 28.7%
- remaining activity at 10 µM (TXK): 34.9%
- remaining activity at 10 µM (FMS): 35.4%
- remaining activity at 10 µM (STK38L/NDR2): 36.9%
- remaining activity at 10 µM (MST4): 45.8%
- remaining activity at 10 µM (ERN1/IRE1): 50.8%
- remaining activity at 10 µM (LYN B): 54.4%
- remaining activity at 10 µM (GCK/MAP4K2): 58.4%
- remaining activity at 10 µM (DYRK3): 58.6%
- remaining activity at 10 µM (MLCK2/MYLK2): 60%
- remaining activity at 10 µM (CAMK2d): 61.7%
- remaining activity at 10 µM (IKKa/CHUK): 71.5%
- remaining activity at 10 µM (Aurora B): 73%
- remaining activity at 10 µM (MARK2/PAR-1Ba): 74.3%
- remaining activity at 10 µM (Haspin): 79.4%
- remaining activity at 10 µM (CHK1): 79.5%
- remaining activity at 10 µM (PKCtheta): 79.8%
- remaining activity at 10 µM (IKKe/IKBKE): 80.1%
- remaining activity at 10 µM (LATS1): 85%
- remaining activity at 10 µM (PKCIOTA): 86.1%
- remaining activity at 10 µM (PKCzeta): 90.2%
- remaining activity at 10 µM (TYK2): 90.7%
- remaining activity at 10 µM (JAK1): 92.1%
- remaining activity at 10 µM (CLK3): 94.6%
- remaining activity at 10 µM (AKT1): 94.9%
- remaining activity at 10 µM (NEK4): 95.8%
- remaining activity at 10 µM (SRMS): 96.8%
- remaining activity at 10 µM (CDC7/DBF4): 98.2%
